The results in this text go back to article PMC11363325, “A Novel Prodrug Strategy Based on Reversibly Degradable Guanidine Imides for High Oral Bioavailability and Prolonged Pharmacokinetics of Broad-Spectrum Anti-influenza Agents” (ACS Central Science, 2024).

The test system of experiment [1] is A/Korea/2785/2009 (H1N1) with the H275Y mutation in NA (KR2785).
The subject of experiment [2] is rgPR8(H275Y), A/Puerto Rico/8/1934 with the H275Y mutation in NA.
Experiment [3] relates to rgA/Korea/09/2009Δ53–60 with the H275Y mutation in NA (rgKR09).
The test system of experiment [4] is rgA/Korea/09/2009Δ53–60(H275Y), A/H1N1(H275Y). Further details: species or system BALB/c mice. The note with it: mouse, in vivo, po, 10 mg/kg.

Structures can show the parent of a compound that is named as a salt.

For the compound `NC12CC3CC(CC(C3)C1)C2` [AMT, Amantadine, reference compound], the EC50 in experiment [1], in experiment [2] and in experiment [3] was > 100 µM each time.
In the case of `CCC(CC)O[C@@H]1C=C(C(=O)O)C[C@H](NC(=N)N)[C@H]1NC(C)=O` [GOC, guanidino oseltamivir carboxylate, reference compound], the EC50 in experiment [1] turned out to be 0.78 ± 0.01 µM; in experiment [2], 0.09 ± 0.01 µM; in experiment [3] it was 0.11 ± 0.01 µM. In experiment [2], the “resistance factor (RF), ratio of EC50 against rgPR8(H275Y) to wild-type rgPR8” value is on record as 18.0.
`CCC(CC)O[C@@H]1C=C(C(=O)O)C[C@H](NC(=N)N)[C@H]1NC(C)=O` [GOC·TFA, guanidino oseltamivir carboxylate]: in experiment [4], the survival rate result is listed as “all mice were eventually dead”.
For the compound `CCC(CC)O[C@@H]1C=C(C(=O)O)C[C@H](N)[C@H]1NC(C)=O` [OSC, oseltamivir carboxylate, reference compound], the results for the EC50 in experiment [1], in experiment [2] and in experiment [3] were 56.61 ± 0.3 µM, 13.7 ± 2.7 µM and 25.9 ± 0.65 µM, respectively. Besides, in experiment [2], the “resistance factor (RF), ratio of EC50 against rgPR8(H275Y) to wild-type rgPR8” value is listed as 274.
As for `CCCCC1CC(=O)N(C(=N[C@H]2CC(C(=O)O)=C[C@@H](OC(CC)CC)[C@@H]2NC(C)=O)N2C(=O)CC(CCCC)C2=O)C1=O` (stereo partly drawn) [OSC-GCDI(B)], the EC50 in experiment [1] came out at 17.6 ± 2.9 µM; in experiment [2], 3.41 ± 0.01 µM; in experiment [3], 12.9 ± 0.65 µM.
On the same counts, the results for `CCC(CC)O[C@@H]1C=C(C(=O)O)C[C@H](N=C(N2C(=O)[C@H]3CCCC[C@H]3C2=O)N2C(=O)[C@H]3CCCC[C@H]3C2=O)[C@H]1NC(C)=O` [OSC-GCDI(C)] are 5.91 ± 0.85 µM, 0.49 ± 0.01 µM and 3.7 ± 0.5 µM.
Turning to `CCC(CC)O[C@@H]1C=C(C(=O)O)C[C@H](N=C(N2C(=O)C3CCC(C)CC3C2=O)N2C(=O)C3CCC(C)CC3C2=O)[C@H]1NC(C)=O` (stereo partly drawn) [OSC-GCDI(CM)], the EC50 in experiment [1] stood at 14 ± 5.15 µM; in experiment [2], 1.2 ± 0.05 µM; in experiment [3], 4.43 ± 0.25 µM.
For `CCC(CC)O[C@@H]1C=C(C(=O)O)C[C@H](N=C(N2C(=O)[C@H]3CC=CC[C@H]3C2=O)N2C(=O)[C@H]3CC=CC[C@H]3C2=O)[C@H]1NC(C)=O` [OSC-GCDI(Ce)], the results for the EC50 in experiment [1], in experiment [2] and in experiment [3] were 13.22 ± 0.1 µM, 1.9 ± 0.1 µM and 5.21 ± 0.02 µM, respectively.
For `CCC(CC)O[C@@H]1C=C(C(=O)O)C[C@H](N=C(N2C(=O)CC(C)(C)C2=O)N2C(=O)CC(C)(C)C2=O)[C@H]1NC(C)=O` [OSC-GCDI(D)], the EC50 in experiment [1] stood at 9.25 ± 2.4 µM; in experiment [2], 1.52 ± 0.2 µM; in experiment [3], 4.37 ± 1.1 µM.
On the same counts, the results for `CCC(CC)O[C@@H]1C=C(C(=O)O)C[C@H](N=C(N2C(=O)CC(C)C2=O)N2C(=O)CC(C)C2=O)[C@H]1NC(C)=O` (stereo partly drawn) [OSC-GCDI(M)] are 4.61 ± 0.35 µM, 0.74 ± 0.05 µM and 1.96 ± 0.15 µM.
Taken in the same sequence, the figures for `CCC(CC)O[C@@H]1C=C(C(=O)O)C[C@H](N=C(N2C(=O)c3ccccc3C2=O)N2C(=O)c3ccccc3C2=O)[C@H]1NC(C)=O` [OSC-GCDI(P)] were 4.61 ± 0.35 µM, 0.48 ± 0.01 µM and 4.61 ± 0.05 µM.
With `CCC(CC)O[C@@H]1C=C(C(=O)O)C[C@H](N=C(N2C(=O)CCC2=O)N2C(=O)CCC2=O)[C@H]1NC(C)=O` [OSC-GCDI(S)], the EC50 in experiment [1] was 8.55 ± 2.15 µM; in experiment [2], 0.99 ± 0.01 µM; in experiment [3] it was 2.2 ± 0.1 µM.
Taken in the same sequence, the figures for `NC(=O)c1ncn([C@@H]2O[C@H](CO)[C@@H](O)[C@H]2O)n1` [RBV, Ribavirin, reference compound] were 18.3 ± 1.3 µM, 16.4 ± 0.45 µM and 15.79 ± 0.15 µM.
